As a reminder, the IC50 is the midpoint of a concentration-inhibition curve.

Experiment [1] in a line: Inhibition of alpha amylase (unknown origin) using starch as substrate pre-incubated for 30 mins followed by substrate addition and measured after 30 mins by absorbance based analysis. Further details: species or system Homo sapiens.
In experiment [2] the test system is A549. Description: Cytotoxicity against human A549 cells assessed as reduction in cell viability incubated for 24 hrs by MTT assay. It counts as functional, cell-based. The settings on record: A549, 24 h. In general terms: Tetrazolium dyes change colour on reduction, which living cells bring about.
Experiment [3] relates to MCF7. Description: Cytotoxicity against human MCF7 cells assessed as reduction in cell viability incubated for 24 hrs by MTT assay. It counts as functional, cell-based. The settings on record: MCF7, 24 h.
Experiment [4] deals with A549. Description: Cytotoxicity against human A549 cells by MTT assay. It is filed as functional, cell-based.
Experiment [5] has as its target Epidermal growth factor receptor (Homo sapiens, UniProt P00533). The experiment is described as follows: Inhibition of EGFR (unknown origin).
In experiment [6] the test system is A549. Description: Cytotoxicity against human A549 cells assessed as reduction in cell growth. It counts as functional, cell-based.
A further experiment relates to Trypanosoma brucei. Description: Antiparasitic activity against blood stream form Trypanosoma brucei assessed as parasitic growth inhibition at 10 uM by resazurin dye based fluorescence analysis relative to control. It counts as functional. Further details: scale not given: the % may be the effect or the level left.
For experiment [7], the system named is MCF7. The experiment is described as follows: Anticancer activity against human MCF7 cells by MTT assay. It counts as functional, cell-based.
In experiment [8] the test system is A549. The experiment is described as follows: Anticancer activity against human A549 cells by MTT assay. It counts as functional, cell-based.
For experiment [9], the system named is COLO 205. The experiment is described as follows: Anticancer activity against human COLO 205 cells by MTT assay. It is filed as functional, cell-based.
Experiment [10] deals with A2780. Description: Anticancer activity against human A2780 cells by MTT assay. It is filed as functional, cell-based.
Experiment [11] has as its system MCF7. Description: Cytotoxicity against human MCF7 cells assessed as reduction in cell viability by MTT assay. It counts as functional, cell-based.
For experiment [12], the system named is A549. The experiment is described as follows: Cytotoxicity against human A549 cells assessed as reduction in cell viability by MTT assay. It is filed as functional, cell-based.
Experiment [13] has as its system COLO 205. Description: Cytotoxicity against human COLO 205 cells assessed as reduction in cell viability by MTT assay. It counts as functional, cell-based.
The subject of experiment [14] is A2780. Description: Cytotoxicity against human A2780 cells assessed as reduction in cell viability by MTT assay. It counts as functional, cell-based.
The subject of experiment [15] is A2780. Description: Cytotoxicity against human A2780 cells assessed as reduction in cell viability incubated for 72 hrs by CCK-8 assay. It counts as functional, cell-based. The settings on record: A2780, 72 h.
Experiment [16] deals with A2780. The experiment is described as follows: Cytotoxicity against human A2780 cells assessed as increase in LDH activity. It counts as functional, cell-based.
The test system of experiment [17] is A2780. The experiment is described as follows: Induction of apoptosis in human A2780 cells assessed as caspase3/7 activation. It counts as functional, cell-based.

Epidermal growth factor receptor, sequence (P00533 whole entry): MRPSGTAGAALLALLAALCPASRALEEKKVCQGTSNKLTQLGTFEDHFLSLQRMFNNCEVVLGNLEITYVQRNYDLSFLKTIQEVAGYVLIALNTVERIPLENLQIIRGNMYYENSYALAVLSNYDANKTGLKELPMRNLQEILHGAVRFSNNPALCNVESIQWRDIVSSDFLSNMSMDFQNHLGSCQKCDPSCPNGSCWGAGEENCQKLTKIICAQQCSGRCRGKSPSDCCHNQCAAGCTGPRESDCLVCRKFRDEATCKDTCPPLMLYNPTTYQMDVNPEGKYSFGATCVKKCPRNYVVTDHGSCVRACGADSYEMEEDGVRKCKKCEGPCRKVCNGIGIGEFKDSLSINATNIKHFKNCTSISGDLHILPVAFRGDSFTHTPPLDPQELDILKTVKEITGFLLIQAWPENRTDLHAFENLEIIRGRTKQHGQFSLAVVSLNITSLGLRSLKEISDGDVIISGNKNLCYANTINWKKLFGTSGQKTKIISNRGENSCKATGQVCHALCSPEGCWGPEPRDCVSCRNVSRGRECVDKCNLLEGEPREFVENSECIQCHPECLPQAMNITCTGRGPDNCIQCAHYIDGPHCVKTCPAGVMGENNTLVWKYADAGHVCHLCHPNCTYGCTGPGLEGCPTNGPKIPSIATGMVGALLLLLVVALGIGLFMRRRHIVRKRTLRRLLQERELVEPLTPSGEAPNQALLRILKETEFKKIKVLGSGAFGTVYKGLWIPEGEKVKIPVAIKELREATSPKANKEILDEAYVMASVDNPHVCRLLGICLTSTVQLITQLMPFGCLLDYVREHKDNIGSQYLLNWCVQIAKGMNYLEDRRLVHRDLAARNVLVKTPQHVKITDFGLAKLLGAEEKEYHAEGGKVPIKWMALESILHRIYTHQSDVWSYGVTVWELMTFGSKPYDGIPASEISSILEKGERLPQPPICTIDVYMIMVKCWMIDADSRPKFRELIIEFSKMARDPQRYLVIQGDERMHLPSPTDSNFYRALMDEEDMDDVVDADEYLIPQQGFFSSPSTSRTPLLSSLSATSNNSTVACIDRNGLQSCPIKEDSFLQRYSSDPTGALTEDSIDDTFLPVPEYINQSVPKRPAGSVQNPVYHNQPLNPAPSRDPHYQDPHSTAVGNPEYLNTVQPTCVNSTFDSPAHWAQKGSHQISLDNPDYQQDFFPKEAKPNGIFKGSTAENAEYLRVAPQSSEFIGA

`N=c1cc(N)nc2sc(NC(=O)c3cccs3)nn12`: in [1], the IC50 was found to be 36100 nM.
Take `O=C(CSc1nnc(Nc2ccccc2)s1)N1N=C(c2ccccc2)CC1c1ccc([N+](=O)[O-])cc1` (stereo not given): the IC50 in the experiment with A549 [2] was determined as 1540 nM; with MCF7 [3] it was 15900 nM; in the experiment on A549 [4] it was 48300 nM; in [5], 2 nM; in the experiment on A549 [6] it was 10000 nM.
Consider `C=CCNc1nnc(SCC(=O)N2N=C(c3ccccc3)CC2c2ccc([N+](=O)[O-])cc2)s1` (stereo not given), for which the IC50 in the experiment with A549 [2] turned out to be 5180 nM; with MCF7 [3] it was 35700 nM; in the experiment on A549 [6] it was 10000 nM.
Turning to `CNc1nnc(CCCSc2nnc(SCCCc3nnc(NC)s3)s2)s1`, the Activity in the experiment with Trypanosoma brucei is recorded as 65.3%.
`COc1ccc(NC(=O)c2ccc(-c3nsc(-c4csc(-c5ccncc5)n4)n3)cc2)cc1`: the 50% inhibitory concentration (IC50) with MCF7 [7] stood at 110 nM; in the experiment with A549 [8] it was 110 nM; in the experiment with COLO 205 [9], 110 nM; with A2780 [10] it was 110 nM; in the experiment with MCF7 [11], 340 nM; in the experiment on A549 [12] it was 110 nM. Also, the half-inhibitory concentration (IC50) was found to be 120 nM with COLO 205 [13] and 140 nM with A2780 [14].
`O=C(CCl)Nc1nnc(NC(=O)c2cccs2)s1` yielded an IC50 in experiment [1] of 36100 nM.
Consider `Cc1ccc(NC(=O)c2ccc(-c3nsc(-c4csc(-c5ccncc5)n4)n3)cc2)cc1`, for which the 50% inhibitory concentration (IC50) in the experiment with MCF7 [7] stood at 110 nM; with A549 [8], 110 nM; in the experiment on COLO 205 [9] it was 110 nM; in the experiment with A2780 [10], 110 nM; in the experiment on MCF7 [11], 340 nM; in the experiment with A549 [12] it was 110 nM. Also, the concentration for half-maximal inhibition (IC50) is 120 nM in the experiment with COLO 205 [13] and 140 nM in the experiment on A2780 [14].
Turning to `c1ccc(Nc2nnc(CCCSc3nnc(CCCSc4nnc(Nc5ccccc5)s4)s3)s2)cc1`, the Activity in the experiment with Trypanosoma brucei came out at 82.6%.
Regarding `O=C(CSc1nnc(Nc2ccc(Cl)cc2)s1)N1N=C(c2ccccc2)CC1c1ccc([N+](=O)[O-])cc1` (stereo not given), the IC50 is 8490 nM with A549 [2], 67200 nM in the experiment with MCF7 [3], 11900 nM in the experiment with A549 [4] and 10000 nM with A549 [6].
In the case of `Cc1nc[nH]c1-c1nnc(Nc2ccccc2F)s1`, in the experiment on Trypanosoma brucei, the Activity came out at 64.81%.
Consider `O=C1C[C@H](n2ccsc2=S)[C@H]2CO[C@@H]1O2`, for which the IC50 amounted to 47800 nM in the experiment on A2780 [15], 62000 nM in the experiment on A2780 [16], 1000 nM in the experiment on A2780 [17] and 110 nM with MCF7 [7].
Turning to `O=C(NC1=NN2C(=O)/C(=C/C3CCCO3)N=C2S1)c1cccs1` (stereo not given), it took 36100 nM to reach half-maximal inhibition in [1] (IC50).
Consider `COc1cc(NC(=O)c2ccc(-c3nsc(-c4csc(-c5ccncc5)n4)n3)cc2)cc(OC)c1`, for which the IC50 turned out to be 110 nM in the experiment with MCF7 [7]; 110 nM in the experiment with A549 [8]; 110 nM with COLO 205 [9]; 110 nM with A2780 [10]; 340 nM in the experiment on MCF7 [11]; 110 nM with A549 [12]. Further, the results for the IC50 with COLO 205 [13] and in the experiment on A2780 [14] were 120 nM and 140 nM, respectively.
Take `Nc1nsc(=S)n1[C@H]1CC(=O)[C@@H]2OC[C@H]1O2`: the IC50 with A2780 [15] stood at 50200 nM; with A2780 [16] it was 23800 nM; in the experiment on A2780 [17], 15000 nM.
In turn, `O=C(NC1=NN2C(=O)CN=C2S1)c1cccs1` displayed a half-maximal inhibitory concentration (IC50) in experiment [1] of 36100 nM.

(Values after ChEMBL document CHEMBL6083193, “Advancing drug discovery: Thiadiazole derivatives as multifaceted agents in medicinal chemistry and pharmacology” (Bioorg Med Chem, 2024).)
